We go through 23 molecules from PubChem BioAssay AID330 (DTP/NCI, 2004).

In the test the test system is P388 leukemia ip, CD2F1 mice, survival T/C. Nature of the test: NCI In Vivo Anticancer Drug Screen. Data for tumor model P388 Leukemia (intraperitoneal) in CD2F1 (CDF1) mice. The note with it: endpoint: median survival time, higher = longer survival. The gist of the method:
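Mice carrying the transplanted tumor received test compound or vehicle. Survival was recorded in each group, and the value is the treated-group measurement divided by that of the vehicle-treated control group.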

The mark [1] stands for this setting: dose: 50.0 mg/kg/injection, schedule: Q01DX009 (ip), vehicle: saline with Tween-80.
[2] abbreviates: dose: 100.0 mg/kg/injection, schedule: Q01DX009 (ip), vehicle: saline with Tween-80.
Setting [3] is: dose: 60.0 mg/kg/injection, schedule: Q01DX005 (ip), vehicle: Klucel (hydroxypropylcellulose) (HPC).
Where [4] appears, read: dose: 120.0 mg/kg/injection, schedule: Q01DX005 (ip), vehicle: Klucel (hydroxypropylcellulose) (HPC).
The mark [5] stands for this setting: dose: 240.0 mg/kg/injection, schedule: Q01DX005 (ip), vehicle: Klucel (hydroxypropylcellulose) (HPC).
The mark [6] stands for this setting: dose: 100.0 mg/kg/injection, schedule: Q01DX005 (ip), vehicle: saline with Tween-80.
Where [7] appears, read: dose: 60.0 mg/kg/injection, schedule: Q01DX005 (ip), vehicle: saline with Tween-80.
Where [8] appears, read: dose: 120.0 mg/kg/injection, schedule: Q01DX005 (ip), vehicle: saline with Tween-80.
[9] abbreviates: dose: 25.0 mg/kg/injection, schedule: Q01DX009 (ip), vehicle: water.

Several values for one entry are separate records, joined by “and”; a condition that tells them apart may be missing. Equal values may be shown once. Inconclusive results and toxic doses are left out.

Consider `CCC[CH2][Sn]1([CH2]CCC)[O]C2C(CO)OC(n3ccc(N)nc3=O)C2[O]1` (stereo not drawn), for which the T/C is, setting by setting: (dose: 0.3 mg/kg/injection, schedule: Q03HX015 (ip), vehicle: Klucel (hydroxypropylcellulose) (HPC)) 106 % of control; (dose: 0.44 mg/kg/injection, schedule: Q03HX015 (ip), vehicle: Klucel (hydroxypropylcellulose) (HPC)) 117 % of control; (dose: 0.67 mg/kg/injection, schedule: Q03HX015 (ip), vehicle: Klucel (hydroxypropylcellulose) (HPC)) 119 % of control and 121 % of control; (dose: 0.9 mg/kg/injection, schedule: Q01DX005 (ip), vehicle: Klucel (hydroxypropylcellulose) (HPC)) 109 % of control; (dose: 1.0 mg/kg/injection, schedule: Q03HX015 (ip), vehicle: Klucel (hydroxypropylcellulose) (HPC)) 123 % of control; (dose: 1.5 mg/kg/injection, schedule: Q03HX015 (ip), vehicle: Klucel (hydroxypropylcellulose) (HPC)) 120 % of control and 124 % of control. Also, the T/C reads like this: (dose: 1.56 mg/kg/injection, schedule: Q01DX009 (ip), vehicle: other) 102 % of control and 86 % of control; (dose: 2.0 mg/kg/injection, schedule: Q01DX005 (ip), vehicle: Klucel (hydroxypropylcellulose) (HPC)) 121 % of control; (dose: 3.0 mg/kg/injection, schedule: Q01DX005 (ip), vehicle: Klucel (hydroxypropylcellulose) (HPC)) 122 % of control; (dose: 3.12 mg/kg/injection, schedule: Q01DX009 (ip), vehicle: other) 97 % of control.
As for `CN(C)c1ccc(N=Nc2ccc3ccc4cccc5ccc2c3c45)cc1`, the T/C is 93 % of control under setting [1]; 89 % of control under setting [2]; 102 % of control (dose: 200.0 mg/kg/injection, schedule: Q01DX009 (ip), vehicle: saline with Tween-80).
For the molecule `CCN(CC)CCCC(C)Nc1cc(C)nc2cc(N(C)C)ccc12` (stereo not drawn), the T/C by setting is: (dose: 6.25 mg/kg/injection, schedule: Q01DX009 (ip), vehicle: Klucel (hydroxypropylcellulose) (HPC)) 99 % of control; (dose: 12.5 mg/kg/injection, schedule: Q01DX009 (ip), vehicle: Klucel (hydroxypropylcellulose) (HPC)) 101 % of control; (dose: 25.0 mg/kg/injection, schedule: Q01DX009 (ip), vehicle: Klucel (hydroxypropylcellulose) (HPC)) 109 % of control.
For the molecule `O=c1[nH]c2c([N+](=O)[O-])cc(Cl)cc2nc1/C=C(\O)c1cccc2ccccc12`, the T/C runs as follows: under setting [3], 101 % of control; under setting [4], 102 % of control; under setting [5], 105 % of control.
Turning to `CCCCCCOCC(=O)O`, the T/C was 102 % of control under setting [1] and 91 % of control under setting [2].
As for `CNC(=O)OCC[N+](C)(C)C`, the T/C (dose: 3.12 mg/kg/injection, schedule: Q01DX009 (ip), vehicle: saline) is 101 % of control and the T/C (dose: 6.25 mg/kg/injection, schedule: Q01DX009 (ip), vehicle: saline) was 101 % of control.
In the case of `OCC1OC(n2cnc3c(Br)ncnc32)C(O)C1O` (stereo not drawn), the T/C by setting is: (dose: 50.0 mg/kg/injection, schedule: Q01DX005 (ip), vehicle: saline with Tween-80) 91 % of control; under setting [6], 98 % of control; (dose: 200.0 mg/kg/injection, schedule: Q01DX005 (ip), vehicle: saline with Tween-80) 91 % of control.
In the case of `C1[Se]CC12C[Se]C2`, the T/C (dose: 20.0 mg/kg/injection, schedule: Q01DX009 (ip), vehicle: saline with Tween-80) was 105 % of control.
Take `CC1=CC(=O)C(Cc2ccccc2)(c2ccc(O)cc2O)N1` (stereo not drawn): the T/C (dose: 100.0 mg/kg/injection, schedule: Q01DX001 (ip), vehicle: Klucel (hydroxypropylcellulose) (HPC)) is 101 % of control; the T/C (dose: 200.0 mg/kg/injection, schedule: Q01DX001 (ip), vehicle: Klucel (hydroxypropylcellulose) (HPC)) was 97 % of control; the T/C (dose: 400.0 mg/kg/injection, schedule: Q01DX001 (ip), vehicle: Klucel (hydroxypropylcellulose) (HPC)) was 89 % of control.
Consider `CCCNC(C)(C)C(SSSC(c1ccc(C(F)(F)F)cc1)C(C)(C)NCCC)c1ccc(C(F)(F)F)cc1` (stereo not drawn), for which the T/C is, setting by setting: (dose: 100.0 mg/kg/injection, schedule: Q01DX001 (ip), vehicle: saline with Tween-80) 100 % of control; (dose: 200.0 mg/kg/injection, schedule: Q01DX001 (ip), vehicle: saline with Tween-80) 104 % of control; (dose: 400.0 mg/kg/injection, schedule: Q01DX001 (ip), vehicle: saline with Tween-80) 100 % of control.
As for `O=C1CC2CCC(CN2C(=O)OCc2ccccc2)O1` (stereo not drawn), the T/C is 102 % of control under setting [3], 99 % of control under setting [4] and 100 % of control under setting [5].
Take `Nc1c(-c2nc3ccc(C4=NCCN4)cc3[nH]2)[nH]c2cc(-c3nc4ccc(C5=NCCN5)cc4[nH]3)ccc12`: the T/C (dose: 50.0 mg/kg/injection, schedule: Q01DX005 (ip), vehicle: Klucel (hydroxypropylcellulose) (HPC)) was 90 % of control and the T/C (dose: 100.0 mg/kg/injection, schedule: Q01DX005 (ip), vehicle: Klucel (hydroxypropylcellulose) (HPC)) was 90 % of control.
Take `c1ccc(-c2nc(-c3ccc4c(c3)OCO4)[nH]c2-c2ccccc2)cc1`: the T/C reads like this: (dose: 50.0 mg/kg/injection, schedule: Q01DX009 (ip), vehicle: Klucel (hydroxypropylcellulose) (HPC)) 97 % of control; (dose: 100.0 mg/kg/injection, schedule: Q01DX009 (ip), vehicle: Klucel (hydroxypropylcellulose) (HPC)) 114 % of control; (dose: 200.0 mg/kg/injection, schedule: Q01DX009 (ip), vehicle: Klucel (hydroxypropylcellulose) (HPC)) 112 % of control.
For `O=C(Nc1ccc(C2=NCCN2)cc1)c1cc(Cl)cc(C(=O)Nc2ccc(C3=NCCN3)cc2)c1`, the T/C is, setting by setting: (dose: 140.0 mg/kg/injection, schedule: Q01DX010 (ip), vehicle: saline) 95 % of control; (dose: 210.0 mg/kg/injection, schedule: Q01DX010 (ip), vehicle: saline) 90 % of control; (dose: 315.0 mg/kg/injection, schedule: Q01DX010 (ip), vehicle: saline) 100 % of control; (dose: 473.0 mg/kg/injection, schedule: Q01DX010 (ip), vehicle: saline) 100 % of control.
On to `COC(=O)/C=c1/s/c(=C\C(C)=N)[nH]c1=O`, for which the T/C is 90 % of control under setting [7] and 89 % of control under setting [8].
Turning to `Cc1c([O-])[n+](Cc2ccccc2)nn1C`, the T/C under setting [9] is 89 % of control.
In the case of `NCCc1ccc([N+](=O)[O-])cc1`, the T/C is, setting by setting: (dose: 50.0 mg/kg/injection, schedule: Q01DX009 (ip), vehicle: saline) 104 % of control and 96 % of control; (dose: 100.0 mg/kg/injection, schedule: Q01DX009 (ip), vehicle: saline) 98 % of control and 105 % of control.
Consider `CC(C)(CCC(C)(C)NCCCN)NCCCN`, for which the T/C was 115 % of control (dose: 3.13 mg/kg/injection, schedule: Q01DX009 (ip), vehicle: water); 112 % of control (dose: 6.25 mg/kg/injection, schedule: Q01DX009 (ip), vehicle: water); 102 % of control (dose: 12.5 mg/kg/injection, schedule: Q01DX009 (ip), vehicle: water); 103 % of control under setting [9]; 97 % of control (dose: 50.0 mg/kg/injection, schedule: Q01DX009 (ip), vehicle: water).
`C1=C[N-]c2c3c(ccc2=C1)=CC=C[N-]3.C1=C[N-]c2c3c(ccc2=C1)=CC=C[N-]3.C1C[N-]C2C(C1)CCC1CC[N-]CC12.[Ni]`: the T/C by setting is: (dose: 3.12 mg/kg/injection, schedule: Q01DX005 (ip), vehicle: saline) 97 % of control; (dose: 6.25 mg/kg/injection, schedule: Q01DX005 (ip), vehicle: saline) 96 % of control.
Regarding `CCOC(=O)C1=C(C(=O)c2ccc(C)cc2)C(c2cccc([N+](=O)[O-])c2)C(C(=O)c2ccc(C)cc2)=C(C(=O)OCC)N1`, the T/C runs as follows: under setting [7], 103 % of control; under setting [8], 93 % of control; (dose: 240.0 mg/kg/injection, schedule: Q01DX005 (ip), vehicle: saline with Tween-80) 111 % of control.
Turning to `CC1(C)CC(=O)C=C(Nc2ccc(O)cc2)C1`, the T/C by setting is: (dose: 6.25 mg/kg/injection, schedule: Q01DX005 (ip), vehicle: saline with Tween-80) 100 % of control; (dose: 12.5 mg/kg/injection, schedule: Q01DX005 (ip), vehicle: saline with Tween-80) 100 % of control; (dose: 25.0 mg/kg/injection, schedule: Q01DX005 (ip), vehicle: saline with Tween-80) 96 % of control; under setting [6], 86 % of control.
Regarding `CC(C)(C)N(O)N=O.CC(C)(C)N(O)N=O.[Cu]`, under “dose: 6.25 mg/kg/injection, schedule: Q01DX001 (ip), vehicle: saline with Tween-80”, the T/C was 103 % of control.
With `O=c1ccc(=O)c2c(=O)c3cc4[nH]c5ccccc5[nH]c4cc3c(=O)c12`, the T/C is, setting by setting: (dose: 25.0 mg/kg/injection, schedule: Q01DX009 (ip), vehicle: saline with Tween-80) 94 % of control; under setting [1], 92 % of control; under setting [2], 88 % of control.
